This experiment addresses Maltase-glucoamylase (Homo sapiens, UniProt O43451). The experiment can be described thus: Inhibition of alpha-glucosidase (unknown origin) using p-nitrophenyl-alpha-D-glucopyranoside as substrate incubated for 30 mins by spectrophotometric analysis.

Sequence of Maltase-glucoamylase (O43451 whole entry): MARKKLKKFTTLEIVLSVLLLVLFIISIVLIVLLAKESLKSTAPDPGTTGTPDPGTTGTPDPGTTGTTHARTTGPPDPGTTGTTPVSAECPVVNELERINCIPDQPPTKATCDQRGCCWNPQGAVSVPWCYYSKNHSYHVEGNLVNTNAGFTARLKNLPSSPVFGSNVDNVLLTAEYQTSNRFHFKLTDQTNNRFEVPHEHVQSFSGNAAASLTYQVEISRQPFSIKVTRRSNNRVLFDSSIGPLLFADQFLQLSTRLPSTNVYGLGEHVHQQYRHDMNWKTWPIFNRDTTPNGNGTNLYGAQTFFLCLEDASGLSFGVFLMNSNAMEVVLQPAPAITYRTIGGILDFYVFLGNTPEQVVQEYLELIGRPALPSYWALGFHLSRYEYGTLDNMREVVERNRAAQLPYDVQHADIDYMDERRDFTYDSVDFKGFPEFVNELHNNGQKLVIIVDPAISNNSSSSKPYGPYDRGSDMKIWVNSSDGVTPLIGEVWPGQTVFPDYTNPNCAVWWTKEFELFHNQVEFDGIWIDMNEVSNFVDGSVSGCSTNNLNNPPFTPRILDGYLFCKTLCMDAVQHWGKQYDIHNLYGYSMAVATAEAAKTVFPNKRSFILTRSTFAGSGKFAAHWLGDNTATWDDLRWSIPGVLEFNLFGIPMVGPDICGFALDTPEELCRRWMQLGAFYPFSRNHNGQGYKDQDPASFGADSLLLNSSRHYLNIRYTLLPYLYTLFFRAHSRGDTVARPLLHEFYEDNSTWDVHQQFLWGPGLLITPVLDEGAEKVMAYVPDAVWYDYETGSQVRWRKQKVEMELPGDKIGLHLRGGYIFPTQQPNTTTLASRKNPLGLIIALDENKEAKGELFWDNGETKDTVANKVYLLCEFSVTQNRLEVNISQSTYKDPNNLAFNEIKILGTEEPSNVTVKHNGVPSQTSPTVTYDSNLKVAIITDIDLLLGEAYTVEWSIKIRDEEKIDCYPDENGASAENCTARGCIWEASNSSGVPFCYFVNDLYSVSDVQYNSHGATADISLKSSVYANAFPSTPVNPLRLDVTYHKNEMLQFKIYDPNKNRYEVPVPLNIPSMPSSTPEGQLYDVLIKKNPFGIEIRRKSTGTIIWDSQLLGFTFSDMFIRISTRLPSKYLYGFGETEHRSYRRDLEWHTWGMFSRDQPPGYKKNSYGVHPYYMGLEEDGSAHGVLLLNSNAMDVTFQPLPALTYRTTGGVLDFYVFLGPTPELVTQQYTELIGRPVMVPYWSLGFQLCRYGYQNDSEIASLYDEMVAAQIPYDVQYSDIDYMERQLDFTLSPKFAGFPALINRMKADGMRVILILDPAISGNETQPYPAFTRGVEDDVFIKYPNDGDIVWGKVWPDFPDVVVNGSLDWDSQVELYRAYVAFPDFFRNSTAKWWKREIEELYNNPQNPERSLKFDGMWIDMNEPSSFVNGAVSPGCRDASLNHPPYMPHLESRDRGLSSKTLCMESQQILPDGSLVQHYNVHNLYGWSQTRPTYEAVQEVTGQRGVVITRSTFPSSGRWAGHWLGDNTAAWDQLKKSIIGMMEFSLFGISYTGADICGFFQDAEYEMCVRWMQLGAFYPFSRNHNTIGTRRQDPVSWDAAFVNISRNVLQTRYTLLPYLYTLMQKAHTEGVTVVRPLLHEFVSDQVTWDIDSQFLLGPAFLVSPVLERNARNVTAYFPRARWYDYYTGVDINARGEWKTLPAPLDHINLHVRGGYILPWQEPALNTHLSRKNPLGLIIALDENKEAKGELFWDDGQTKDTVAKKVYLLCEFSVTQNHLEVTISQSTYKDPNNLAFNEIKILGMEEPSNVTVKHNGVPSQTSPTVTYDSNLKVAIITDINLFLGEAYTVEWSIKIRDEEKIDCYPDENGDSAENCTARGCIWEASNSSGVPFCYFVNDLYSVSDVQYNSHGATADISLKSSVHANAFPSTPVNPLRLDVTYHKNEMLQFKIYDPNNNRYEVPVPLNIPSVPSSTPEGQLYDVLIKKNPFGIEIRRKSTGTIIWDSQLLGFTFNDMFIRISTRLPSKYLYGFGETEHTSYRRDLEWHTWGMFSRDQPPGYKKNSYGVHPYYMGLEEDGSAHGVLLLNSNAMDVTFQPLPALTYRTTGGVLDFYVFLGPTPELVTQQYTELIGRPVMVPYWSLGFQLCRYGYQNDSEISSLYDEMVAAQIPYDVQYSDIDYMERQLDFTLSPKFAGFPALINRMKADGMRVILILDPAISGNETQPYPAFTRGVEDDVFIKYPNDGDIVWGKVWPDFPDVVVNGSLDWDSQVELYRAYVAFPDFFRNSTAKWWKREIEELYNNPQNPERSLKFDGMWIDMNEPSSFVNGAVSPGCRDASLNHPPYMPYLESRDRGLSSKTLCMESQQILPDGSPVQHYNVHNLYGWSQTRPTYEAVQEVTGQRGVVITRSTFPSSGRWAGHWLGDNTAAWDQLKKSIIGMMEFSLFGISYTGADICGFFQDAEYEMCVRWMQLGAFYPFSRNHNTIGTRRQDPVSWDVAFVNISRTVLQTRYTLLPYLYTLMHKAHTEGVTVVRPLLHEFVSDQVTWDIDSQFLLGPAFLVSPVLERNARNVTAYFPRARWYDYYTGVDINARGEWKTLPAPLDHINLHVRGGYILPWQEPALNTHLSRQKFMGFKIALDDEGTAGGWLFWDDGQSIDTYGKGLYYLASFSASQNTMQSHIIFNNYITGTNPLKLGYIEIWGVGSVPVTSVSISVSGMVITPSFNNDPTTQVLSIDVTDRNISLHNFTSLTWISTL

As usually defined, the IC50 is the concentration that inhibits the measured activity by half. The low end stands for greater potency in that assay, the high end for weaker potency in that assay. `CC(C)=CCC/C(C)=C/Cc1c(O)cc(O)c(C(=O)/C=C/c2ccc(O)cc2)c1O` registered an IC50 of 1080 nM.
